Source: patent US20240270821A1, “GIP/GLP1/GCG TRI-RECEPTOR AGONISTS AND USES THEREOF” (priority 2023, published 2024)
Where two headings read alike, the source gives them in different places. Marks after values point to notes of the source that are not given here. Starred links: 1 amine or outer side, 2 acyl side, 3 side chain; linkers in the order of their positions; H or OH if unused. Non-standard residues stand in square brackets, D forms with d. Residues, ends and D or L forms follow the SMILES beside them. Groups on a side chain read outwards from the residue. No end group written: not given here. *: point of attachment. C20 diacid = O=C(O)CCCCCCCCCCCCCCCCCCC(=O)*; C18 diacid = O=C(O)CCCCCCCCCCCCCCCCC(=O)*; αMePhe(2-F) = C[C@](N)(Cc1ccccc1F)C(=O)O; γGlu = O=C(O)[C@H](CCC(=O)[*:2])N[*:1]; εLys = N[C@@H](CCCCN[*:1])C(=O)[*:2]; αMeY = C[C@](N)(Cc1ccc(O)cc1)C(=O)O; 4Pal = N[C@@H](Cc1ccncc1)C(=O)O; αMeL = CC(C)C[C@](C)(N)C(=O)O; αMeS = C[C@](N)(CO)C(=O)O; Orn = NCCC[C@H](N)C(=O)O; AEEA = NCCOCCOCC(=O)O; Aib = CC(C)(N)C(=O)O

Tests used:
[1] = biological target: T1, hGIPR (Homo sapiens, UniProt P48546); assay: Functional cAMP activity in the presence of 1% HSA; assay type: cell-based; details: read-out: cAMP Rel EC50, hGIPR
T1 sequence (P48546 22-466): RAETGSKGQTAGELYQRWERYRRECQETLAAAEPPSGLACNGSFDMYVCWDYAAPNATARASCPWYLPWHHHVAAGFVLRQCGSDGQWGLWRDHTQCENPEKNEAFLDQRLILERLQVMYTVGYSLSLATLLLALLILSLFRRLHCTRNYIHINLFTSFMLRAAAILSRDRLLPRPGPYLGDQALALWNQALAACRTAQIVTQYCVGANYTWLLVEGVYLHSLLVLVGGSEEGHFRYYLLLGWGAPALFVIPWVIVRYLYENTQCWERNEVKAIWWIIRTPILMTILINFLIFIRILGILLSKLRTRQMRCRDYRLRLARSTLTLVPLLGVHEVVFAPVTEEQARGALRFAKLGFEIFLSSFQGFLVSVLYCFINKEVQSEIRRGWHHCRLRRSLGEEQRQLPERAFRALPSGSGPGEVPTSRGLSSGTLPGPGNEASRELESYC

[2] = biological target: human GcgR (Homo sapiens, UniProt P47871); assay: Functional cAMP activity in the presence of 1% HSA; assay type: cell-based; details: read-out: cAMP Rel EC50, hGcgR
human GcgR, sequence (P47871 26-477): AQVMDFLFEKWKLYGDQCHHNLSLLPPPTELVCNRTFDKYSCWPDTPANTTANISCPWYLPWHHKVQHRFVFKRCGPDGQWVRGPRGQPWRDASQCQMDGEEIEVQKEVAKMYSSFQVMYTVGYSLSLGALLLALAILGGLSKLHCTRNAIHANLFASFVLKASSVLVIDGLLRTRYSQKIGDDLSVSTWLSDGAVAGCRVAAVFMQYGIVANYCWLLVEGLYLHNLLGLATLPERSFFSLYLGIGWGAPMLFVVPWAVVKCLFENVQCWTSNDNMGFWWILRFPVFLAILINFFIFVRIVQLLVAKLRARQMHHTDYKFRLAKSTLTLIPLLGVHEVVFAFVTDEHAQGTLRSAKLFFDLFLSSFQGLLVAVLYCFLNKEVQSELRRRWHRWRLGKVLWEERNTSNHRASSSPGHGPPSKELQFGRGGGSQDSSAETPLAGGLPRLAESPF

[3] = biological target: T1, hGIPR; assay: Functional cAMP activation in the presence of 0.1% casein (no HSA); assay type: cell-based; details: read-out: Relative cAMP EC50, hGIPR;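 on Relative cAMP EC50, hGIPR: intracellular cAMP rise after 30 min at 37 °C read by HTRF against a standard curve, scaled between buffer alone (0%) and top control ligand concentration (100%), four-parameter fit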;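 on Relative cAMP EC50, hGLP-1R: intracellular cAMP rise after 30 min at 37 °C read by HTRF, normalized between buffer only (0%) and maximal control ligand (100%), four-parameter variable-slope fit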
[4] = biological target: T2, hGLP-1R (Homo sapiens, UniProt P43220); assay: Functional cAMP activity in the presence of 1% HSA; assay type: cell-based; details: read-out: cAMP Rel EC50, hGLP-1R
Target sequence in this assay (P43220 24-463): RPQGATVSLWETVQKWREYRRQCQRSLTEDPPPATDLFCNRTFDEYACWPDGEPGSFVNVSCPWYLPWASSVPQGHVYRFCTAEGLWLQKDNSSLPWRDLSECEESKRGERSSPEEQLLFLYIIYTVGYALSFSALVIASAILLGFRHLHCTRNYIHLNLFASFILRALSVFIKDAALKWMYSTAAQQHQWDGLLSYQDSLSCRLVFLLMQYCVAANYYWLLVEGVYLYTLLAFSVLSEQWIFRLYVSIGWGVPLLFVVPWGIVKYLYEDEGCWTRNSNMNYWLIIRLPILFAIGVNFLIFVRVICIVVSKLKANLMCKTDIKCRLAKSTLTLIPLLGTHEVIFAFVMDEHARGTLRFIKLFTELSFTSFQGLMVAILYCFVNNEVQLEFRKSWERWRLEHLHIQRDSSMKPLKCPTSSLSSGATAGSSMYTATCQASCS

[5] = Body weight in diet-induced obese C57BL/6 mice; assay type: in vivo; details: 10 nmol/kg SC QD, percent of starting weight, DIO mice, mean ± SEM n=5
How it was run: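 Male C57BL/6 DIO mice (41-50 g, 5 per group, randomized by weight) on calorie-rich diet received subcutaneous doses 30-90 min before dark onset, QD or Q3D for 9-16 days. Body weight measured daily, expressed as percent of starting weight, mean±SEM.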

[6] = biological target: T2, hGLP-1R; assay: Functional cAMP activation in the presence of 0.1% casein (no HSA); assay type: cell-based; details: read-out: Relative cAMP EC50, hGLP-1R;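 on Relative cAMP EC50, hGIPR: intracellular cAMP rise after 30 min at 37 °C read by HTRF against a standard curve, scaled between buffer alone (0%) and top control ligand concentration (100%), four-parameter fit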;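 on Relative cAMP EC50, hGLP-1R: intracellular cAMP rise after 30 min at 37 °C read by HTRF, normalized between buffer only (0%) and maximal control ligand (100%), four-parameter variable-slope fit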
Target sequence in this assay (P43220 24-463): as above

[7] = in vivo; parameters: species or system Sprague Dawley rats; details: male, Sprague Dawley, rat, 4 mg/kg
[8] = biological target: hGcgR (Homo sapiens, UniProt P47871); assay: Functional cAMP activation in the presence of 0.1% casein (no HSA); assay type: cell-based; details: read-out: Relative cAMP EC50, hGcgR;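 further: intracellular cAMP rise after 30 min at 37 °C, read by HTRF against a cAMP standard curve, scaled from buffer only (0%) to maximal control ligand response (100%)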
hGcgR, sequence (P47871 26-477): as the sequence (P47871 26-477) above

[9] = biological target: human GLP1-R (Homo sapiens, UniProt P43220); assay: GLP1-R internalization assay in HEK293 cells; assay type: cell-based
human GLP1-R, sequence (P43220 24-463): as the sequence (P43220 24-463) above

[10] = Pharmacokinetics in male Sprague Dawley rats, single subcutaneous administration; details: rat, in vivo, sc, 10 nmol/kg
[11] = biological target: T2, hGLP-1R; assay: GLP-1R CHO cell β-arrestin recruitment assay; assay type: cell-based; parameters: host or cells: CHO-K1 (PathHunter, assay-ready frozen cells);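 further: luminescence read after 90 min peptide exposure at 37 °C and a further 60 min with detection reagent at room temperature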
Target sequence in this assay (P43220 24-463): as above
Target sequence in this assay (P32121 whole entry partner): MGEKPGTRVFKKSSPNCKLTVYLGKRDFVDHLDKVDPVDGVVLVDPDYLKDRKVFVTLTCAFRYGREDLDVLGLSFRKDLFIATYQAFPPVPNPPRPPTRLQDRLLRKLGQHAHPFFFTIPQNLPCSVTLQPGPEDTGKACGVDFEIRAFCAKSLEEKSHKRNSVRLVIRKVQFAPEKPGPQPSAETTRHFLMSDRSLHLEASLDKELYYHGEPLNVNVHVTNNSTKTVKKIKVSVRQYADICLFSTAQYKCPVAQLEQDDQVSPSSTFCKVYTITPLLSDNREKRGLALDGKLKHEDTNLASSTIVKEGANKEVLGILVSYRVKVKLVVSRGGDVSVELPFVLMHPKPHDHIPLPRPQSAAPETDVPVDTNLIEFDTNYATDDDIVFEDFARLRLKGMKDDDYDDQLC

[12] = in the presence of 0.1% casein (no HSA), geometric mean

| EC50 [1] [nM] | EC50 [2] [nM] | EC50 [3] [nM] | EC50 [4] [nM] | EC50 [6] [nM] | CL/F [7] [L/h/kg] | half-life [7] [h] | EC50 [8] [nM] | EC50 [3, 12] [nM] | EC50 [6, 12] [nM] | EC50 [8, 12] [nM] | EC50 ([9]; HEK293 cells expressing SNAP-GLP-1R, read-out: GLP1R Internalization EC50) [nM] | Internalization % TOP ([9]; normalized to maximum concentration of GLP-1 (100%)) [%] | CL/F [10] [L/h/kg] | half-life [10] [h] | EC50 ([11]; CHO-K1 PathHunter, β-arrestin-2, 0.1% casein, read-out: hGLP1R β-arrestin Rel EC50) [nM] | % Stimulation Max ([11]; normalized to GLP-1(7-36) as maximum control) [%] | Molecule | Body weight (%) ([5]; 9 days) | Body weight (%) ([5]; 15 days) |
| --- | --- | --- | --- | --- | --- | --- | --- | --- | --- | --- | --- | --- | --- | --- | --- | --- | --- | --- | --- |
| 0.927 | 229 | 0.015 | 7.88 | 0.171 | 0.44 | 9.4 | 2.73 | – | – | – | – | – | – | – | – | – | H-Y[Aib]QGT[αMePhe(2-F)]TSD[4Pal][αMeS]I[αMeL]LD[Orn]K([AEEA-AEEA-γGlu-C18 diacid])AQ[Aib][Orn]FI[dE][αMeY]LIEGGPSSGAPEPSEG-NH2 [Example 472] | 76.13 ± 2.28 | – |
| 2.15 | 176 | – | 18.8 | – | 0.23 | 8.2 | – | 0.0213 | 0.251 | 1.45 | – | – | – | – | – | – | CC[C@H](C)[C@H](NC(=O)[C@H](CC(C)C)NC(=O)[C@](C)(Cc1ccc(O)cc1)NC(=O)[C@@H](CCC(=O)O)NC(=O)[C@@H](NC(=O)[C@H](Cc1ccccc1)NC(=O)[C@H](CCCN)NC(=O)C(C)(C)NC(=O)[C@H](CCC(N)=O)NC(=O)[C@H](C)NC(=O)[C@H](CCCCNC(=O)COCCOCCNC(=O)CC[C@H](NC(=O)CCCCCCCCCCCCCCCCC(=O)O)C(=O)O)NC(=O)[C@H](CCCN)NC(=O)[C@H](CC(=O)O)NC(=O)[C@H](CC(C)C)NC(=O)[C@](C)(CC(C)C)NC(=O)[C@@H](NC(=O)[C@](C)(CO)NC(=O)[C@H](Cc1ccncc1)NC(=O)[C@H](CC(=O)O)NC(=O)[C@H](CO)NC(=O)[C@@H](NC(=O)[C@](C)(Cc1ccccc1F)NC(=O)[C@@H](NC(=O)CNC(=O)[C@H](CCC(N)=O)NC(=O)C(C)(C)NC(=O)[C@@H](N)Cc1ccc(O)cc1)[C@@H](C)O)[C@@H](C)O)[C@@H](C)CC)[C@@H](C)CC)C(=O)N[C@@H](CCC(=O)O)C(=O)NCC(=O)NCC(=O)N1CCC[C@H]1C(=O)N[C@@H](CO)C(=O)N[C@@H](CO)C(=O)NCC(=O)N[C@@H](CCC(=O)O)C(=O)N1CCC[C@H]1C(=O)N1CCC[C@H]1C(=O)N1CCC[C@H]1C(=O)N[C@@H](CCC(=O)O)C(N)=O [Example 378] (H-Y[Aib]QGT[αMePhe(2-F)]TSD[4Pal][αMeS]I[αMeL]LD[Orn]K([AEEA-γGlu-C18 diacid])AQ[Aib][Orn]FI[dE][αMeY]LIEGGPSSGEPPPE-NH2) | – | 68.84 +/− 1.37**** % |
| 42.6 | 842 | – | 204 | – | – | – | – | 0.207 | 0.926 | 3.47 | 34 | 91.1 | 0.0193 | 12.6 | 6.11 | 74.5 | H-Y[Aib]QGTFTSDYSI[αMeL]LDKQAAK([εLys-εLys-γGlu-C20 diacid])QFVEWLLA[Aib]GPSSGEPPPSEG-NH2 [Example 329] | – | – |
| 1.89 | 138 | 0.0142 | 12.1 | 0.178 | 0.64 | 7.8 | 1.19 | – | – | – | – | – | – | – | – | – | Y[Aib]QGT[αMePhe(2-F)]TSD[4Pal][αMeS]I[αMeL]LD[Orn]K([AEEA-γGlu-C18 diacid])AQ[Aib][Orn]FI[dE][αMeY]LIEGGPSSGAPEPSEG-NH2 [Example 429] | 74.66 ± 3.87 | 70.20 ± 1.63 % |
